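Method: 48-hour compound exposure of cells in 96-well plates, five concentrations, linear interpolation of endpoints. GI50 is the concentration that inhibits growth by half.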 Activity calls are given as the source filed them. Rule as the data show it: active = GI50 up to about 1.1 µM and inactive = higher.
Legend:
Test in all cases: DTP human tumour cell line panel, 48 h
[1] = system: 786-0
[2] = system: A549
[3] = system: ACHN
[4] = system: CAKI-1
[5] = system: CCRF-CEM
[6] = system: COLO 205
[7] = system: DU-145
[8] = system: EKVX
[9] = system: HCC 2998
[10] = system: HCT-116
[11] = system: HCT-15
[12] = system: HL-60
[13] = system: HOP-62
[14] = system: HOP-92
[15] = system: HT-29
[16] = system: Hs-578T
[17] = system: IGROV-1
[18] = system: K562
[19] = system: KM12
[20] = system: LOX IMVI
[21] = system: M14
[22] = system: MCF7
[23] = system: MDA-MB-231
[24] = system: MDA-MB-435
[25] = system: MDA-N
[26] = system: MOLT-4
[27] = system: Malme-3M
[28] = system: NCI-H226
[29] = system: NCI-H23
[30] = system: NCI-H460
[31] = system: NCI/ADR-RES
[32] = system: OVCAR-3
[33] = system: OVCAR-4
[34] = system: OVCAR-5
[35] = system: OVCAR-8
[36] = system: PC-3
[37] = system: RPMI-8226
[38] = system: SF-268
[39] = system: SF-295
[40] = system: SF-539
[41] = system: SK-MEL-28
[42] = system: SK-MEL-2
[43] = system: SK-MEL-5
[44] = system: SK-OV-3
[45] = system: SN12C
[46] = system: SNB-75
[47] = system: SR
[48] = system: SW-620
[49] = system: T47D
[50] = system: TK-10
[51] = system: U-251
[52] = system: UACC-257
[53] = system: UACC-62
[54] = system: UO-31
[55] = system: A498
[56] = system: NCI-H522
[57] = system: RXF 393
[58] = system: SNB-19

## CCOP(=O)(OCC)C(C)(C)N(C)/C(F)=N/C(F)(F)F
[1]
  GI50: > 100 µM (inactive)
[2]
  GI50: > 100 µM (inactive)
[3]
  GI50: > 100 µM (inactive)
[4]
  GI50: > 100 µM (inactive)
[5]
  GI50: > 100 µM (inactive)
[6]
  GI50: > 100 µM (inactive)
[7]
  GI50: > 100 µM (inactive)
[8]
  GI50: > 100 µM (inactive)
[9]
  GI50: > 100 µM (inactive)
[10]
  GI50: > 100 µM (inactive)
[11]
  GI50: > 100 µM
[12]
  GI50: > 100 µM (inactive)
[13]
  GI50: > 100 µM (inactive)
[14]
  GI50: > 100 µM (inactive)
[15]
  GI50: > 100 µM (inactive)
[16]
  GI50: > 100 µM (inactive)
[17]
  GI50: > 100 µM (inactive)
[18]
  GI50: > 100 µM (inactive)
[19]
  GI50: > 100 µM (inactive)
[20]
  GI50: > 100 µM (inactive)
[21]
  GI50: > 100 µM (inactive)
[22]
  GI50: > 100 µM (inactive)
[23]
  GI50: > 100 µM (inactive)
[24]
  GI50: > 100 µM (inactive)
[25]
  GI50: > 100 µM (inactive)
[26]
  GI50: > 100 µM (inactive)
[27]
  GI50: > 100 µM (inactive)
[28]
  GI50: > 100 µM (inactive)
[29]
  GI50: > 100 µM (inactive)
[30]
  GI50: > 100 µM (inactive)
[31]
  GI50: > 100 µM (inactive)
[32]
  GI50: > 100 µM (inactive)
[33]
  GI50: > 100 µM (inactive)
[34]
  GI50: > 100 µM (inactive)
[35]
  GI50: > 100 µM (inactive)
[36]
  GI50: > 100 µM (inactive)
[37]
  GI50: > 100 µM (inactive)
[38]
  GI50: > 100 µM (inactive)
[39]
  GI50: > 100 µM (inactive)
[40]
  GI50: > 100 µM (inactive)
[41]
  GI50: > 100 µM (inactive)
[42]
  GI50: > 100 µM (inactive)
[43]
  GI50: > 100 µM (inactive)
[44]
  GI50: > 100 µM (inactive)
[45]
  GI50: > 100 µM (inactive)
[46]
  GI50: > 100 µM (inactive)
[47]
  GI50: > 100 µM (inactive)
[48]
  GI50: > 100 µM (inactive)
[49]
  GI50: > 100 µM (inactive)
[50]
  GI50: > 100 µM (inactive)
[51]
  GI50: > 100 µM (inactive)
[52]
  GI50: > 100 µM (inactive)
[53]
  GI50: > 100 µM (inactive)
[54]
  GI50: > 100 µM (inactive)

## COC(=O)[C@@H]1CN(C(C)=O)C(=O)N1C(=O)OCc1ccccc1
[1]
  GI50: > 100 µM (inactive)
[55]
  GI50: > 100 µM (inactive)
[2]
  GI50: > 100 µM (inactive)
[3]
  GI50: > 100 µM (inactive)
[4]
  GI50: > 100 µM (inactive)
[5]
  GI50: > 100 µM (inactive)
[6]
  GI50: > 100 µM (inactive)
[7]
  GI50: > 100 µM (inactive)
[8]
  GI50: > 100 µM (inactive)
[9]
  GI50: > 100 µM (inactive)
[10]
  GI50: > 100 µM (inactive)
[11]
  GI50: > 100 µM
[12]
  GI50: > 100 µM (inactive)
[13]
  GI50: > 100 µM (inactive)
[14]
  GI50: > 100 µM (inactive)
[15]
  GI50: > 100 µM (inactive)
[16]
  GI50: > 100 µM (inactive)
[17]
  GI50: > 100 µM (inactive)
[18]
  GI50: > 100 µM (inactive)
[19]
  GI50: > 100 µM (inactive)
[20]
  GI50: > 100 µM (inactive)
[21]
  GI50: > 100 µM (inactive)
[23]
  GI50: > 100 µM (inactive)
[24]
  GI50: > 100 µM (inactive)
[25]
  GI50: > 100 µM (inactive)
[26]
  GI50: > 100 µM (inactive)
[27]
  GI50: > 100 µM (inactive)
[28]
  GI50: > 100 µM (inactive)
[29]
  GI50: > 100 µM (inactive)
[30]
  GI50: > 100 µM (inactive)
[56]
  GI50: > 100 µM (inactive)
[31]
  GI50: > 100 µM (inactive)
[32]
  GI50: > 100 µM (inactive)
[33]
  GI50: > 100 µM (inactive)
[34]
  GI50: > 100 µM (inactive)
[35]
  GI50: > 100 µM (inactive)
[36]
  GI50: > 100 µM (inactive)
[37]
  GI50: > 100 µM (inactive)
[57]
  GI50: > 100 µM (inactive)
[38]
  GI50: 59.2 µM (inactive)
[39]
  GI50: > 100 µM (inactive)
[40]
  GI50: > 100 µM (inactive)
[41]
  GI50: > 100 µM (inactive)
[42]
  GI50: > 100 µM (inactive)
[43]
  GI50: > 100 µM (inactive)
[44]
  GI50: > 100 µM (inactive)
[45]
  GI50: > 100 µM (inactive)
[58]
  GI50: > 100 µM (inactive)
[47]
  GI50: > 100 µM (inactive)
[48]
  GI50: > 100 µM (inactive)
[49]
  GI50: > 100 µM (inactive)
[50]
  GI50: > 100 µM (inactive)
[51]
  GI50: > 100 µM (inactive)
[52]
  GI50: > 100 µM (inactive)
[54]
  GI50: > 100 µM (inactive)

## COc1ccc(CNc2nc(NCc3ccc(OC)cc3)nc(NC(C)C)n2)cc1
[1]
  GI50: 7.91 µM (inactive)
[55]
  GI50: 4.79 µM (inactive)
[2]
  GI50: 6.24 µM (inactive)
[3]
  GI50: 8.02 µM (inactive)
[4]
  GI50: 20.3 µM (inactive)
[6]
  GI50: 9.57 µM (inactive)
[7]
  GI50: 19.2 µM (inactive)
[8]
  GI50: 25 µM (inactive)
[9]
  GI50: 28.6 µM (inactive)
[10]
  GI50: 3.18 µM (inactive)
[11]
  GI50: 4.12 µM
[12]
  GI50: 4.08 µM (inactive)
[13]
  GI50: 6.56 µM (inactive)
[14]
  GI50: 3.37 µM (inactive)
[15]
  GI50: 5.41 µM (inactive)
[16]
  GI50: 13.5 µM (inactive)
[17]
  GI50: 7.53 µM (inactive)
[18]
  GI50: 6.98 µM (inactive)
[19]
  GI50: 5.07 µM (inactive)
[20]
  GI50: 6.89 µM (inactive)
[21]
  GI50: 3.61 µM (inactive)
[22]
  GI50: 1.77 µM (inactive)
[24]
  GI50: 3.1 µM (inactive)
[25]
  GI50: 2.69 µM (inactive)
[26]
  GI50: 42.7 µM (inactive)
[27]
  GI50: 5 µM (inactive)
[29]
  GI50: 5.21 µM (inactive)
[30]
  GI50: 3.66 µM (inactive)
[56]
  GI50: 3.03 µM (inactive)
[31]
  GI50: 4.58 µM (inactive)
[32]
  GI50: 3.33 µM (inactive)
[33]
  GI50: 20.3 µM (inactive)
[34]
  GI50: 20.2 µM (inactive)
[35]
  GI50: 13.1 µM (inactive)
[36]
  GI50: 3.3 µM (inactive)
[37]
  GI50: 1.94 µM (inactive)
[57]
  GI50: 7.08 µM (inactive)
[38]
  GI50: 9.02 µM (inactive)
[39]
  GI50: 3.96 µM (inactive)
[40]
  GI50: 9.08 µM (inactive)
[41]
  GI50: 46.8 µM (inactive)
[42]
  GI50: 6.5 µM (inactive)
[43]
  GI50: 4.85 µM (inactive)
[44]
  GI50: 93.3 µM (inactive)
[58]
  GI50: 84.1 µM (inactive)
[46]
  GI50: 7.08 µM (inactive)
[47]
  GI50: 3.84 µM (inactive)
[48]
  GI50: 4.22 µM (inactive)
[49]
  GI50: 43.6 µM (inactive)
[50]
  GI50: 17.9 µM (inactive)
[51]
  GI50: 7.52 µM (inactive)
[52]
  GI50: 7.85 µM (inactive)
[53]
  GI50: 4.28 µM (inactive)
[54]
  GI50: 19.5 µM (inactive)
